We go through 19 compounds from US12350270B2, “Antimalarial agents” (Merck Sharp & Dohme LLC, priority 2019, dated 2025).

This assay deals with parasites (ring stage, in human red blood cell culture). In words: Parasite LDH growth assay (antiparasite potency, Parasite Assay). As to conditions: Plasmodium falciparum, Erythrocyte, 72 h, 0.7% rings, 2% haematocrit, 72 hours at 37° C., LDH readout of parasite growth. Format: cell-based, Plasmodium falciparum. The procedure, abridged: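 Growth was read by an LDH assay after a freeze–thaw cycle (−80 °C overnight, 4 h thaw at RT). Before that, parasites grew with compound for 72 h at 37 °C under gassed, humidified conditions. The input was a ring-stage culture adjusted to 0.7% parasitemia and 2% haematocrit in serum (5%)/albumax (0.5%)-supplemented RPMI-Hepes.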
Broadly, the EC50 is the concentration that produces a half-maximal response. `CC[C@]1(C)CC(=O)N(C2c3cc(C(=O)N[C@@H]4c5ccccc5C[C@H]4O)ccc3OCC2(C)OC)C(=N)N1` (stereo partly drawn) [Example 180, 4-[(4R)-4-ethyl-2-imino-4-methyl-6-oxo-hexahydropyrimidin-1-yl]-N-[(1R,2R)-2-hydroxyindan-1-yl]-3-methoxy-3-methyl-chromane-6-carboxamide] registered an EC50 of 65.4 nM.

Take `CC1(C)CC(=O)N([C@H]2c3cc(C(=O)N[C@@H]4c5ccccc5OC(C)(C)[C@H]4O)ccc3OC2(C)C)C(=N)N1` [Example 182, (3S)-N-[(3S,4R)-3-hydroxy-2,2-dimethyl-chroman-4-yl]-3-(2-imino-4,4-dimethyl-6-oxo-hexahydropyrimidin-1-yl)-2,2-dimethyl-3H-benzofuran-5-carboxamide]: the EC50 was found to be 6.1 nM.

With `COCC1(C)Oc2ccc(C(=O)N[C@@H]3c4ccccc4C[C@]3(C)O)cc2C1N1C(=N)NC(C)(C)CC1=O` (stereo partly drawn) [Example 183, N-[(1R,2S)-2-hydroxy-2-methyl-indan-1-yl]-3-(2-imino-4,4-dimethyl-6-oxo-hexahydropyrimidin-1-yl)-2-(methoxymethyl)-2-methyl-3H-benzofuran-5-carboxamide], the response was half-maximal at 71.4 nM (EC50).

Turning to `CC1(C)CC(=O)N([C@@H]2CCOc3ccc(C(=O)N[C@H]4c5ccccc5OC(C)(C)[C@]4(C)O)cc32)C(=N)N1` [Example 184, (4R)-N-[(3R,4S)-3-hydroxy-2,2,3-trimethyl-chroman-4-yl]-4-(2-imino-4,4-dimethyl-6-oxo-hexahydropyrimidin-1-yl)chromane-6-carboxamide], a half-maximal response (EC50) required 105 nM.

For the compound `COC1COc2ccc(C(=O)N[C@@H]3c4ccccc4OC[C@]3(C)O)cc2C1N1C(=N)NC(C)(C)CC1=O` (stereo partly drawn) [Example 185, N-[(3R,4R)-3-hydroxy-3-methyl-chroman-4-yl]-4-(2-imino-4,4-dimethyl-6-oxo-hexahydropyrimidin-1-yl)-3-methoxy-chromane-6-carboxamide], the EC50 amounted to 50.3 nM.

Compound `COC1COc2ccc(C(=O)N[C@@H]3c4ccccc4OC[C@@]3(C)O)cc2C1N1C(=N)NC(C)(C)CC1=O` (stereo partly drawn) [Example 186, N-[(3S,4R)-3-hydroxy-3-methyl-chroman-4-yl]-4-(2-imino-4,4-dimethyl-6-oxo-hexahydropyrimidin-1-yl)-3-methoxy-chromane-6-carboxamide] had an EC50 of 70 nM.

`CC1(C)CC(=O)N(C2CCS(=O)(=O)c3ccc(C(=O)N[C@@H]4c5ccccc5C[C@]4(C)O)cc32)C(=N)N1` (stereo partly drawn) [Example 187, N-[(1R,2S)-2-hydroxy-2-methyl-indan-1-yl]-4-(2-imino-4,4-dimethyl-6-oxo-hexahydropyrimidin-1-yl)-1,1-dioxo-3,4-dihydro-2H-thiochromane-6-carboxamide] registered a 50% effective concentration (EC50) of 66.7 nM.

`CC1(C)CC(=O)N(C2CCS(=O)(=O)c3ccc(C(=O)N[C@@H]4c5ccccc5C[C@@]4(C)O)cc32)C(=N)N1` (stereo partly drawn) [Example 188, N-[(1R,2R)-2-hydroxy-2-methyl-indan-1-yl]-4-(2-imino-4,4-dimethyl-6-oxo-hexahydropyrimidin-1-yl)-1,1-dioxo-3,4-dihydro-2H-thiochromene-6-carboxamide] had a concentration for a half-maximal effect (EC50) of 203 nM.

For `CC1(C)CC(=O)N([C@@H]2CCOc3ccc(C(=O)N[C@@H]4c5cc(F)ccc5OC(C)(C)[C@H]4O)cc32)C(=N)N1` [Example 189, (4R)-N-[(3S,4R)-6-fluoro-3-hydroxy-2,2-dimethyl-chroman-4-yl]-4-(2-imino-4,4-dimethyl-6-oxo-hexahydropyrimidin-1-yl)chromane-6-carboxamide], the concentration for a half-maximal effect (EC50) is 1 nM.

Consider `CCC1(CC)CC(=O)N([C@@H]2CCOc3ccc(C(=O)N[C@@H]4c5cc(F)ccc5OC[C@H]4O)cc32)C(=N)N1` [Example 191, (4R)-4-(4,4-diethyl-2-imino-6-oxo-hexahydropyrimidin-1-yl)-N-[(3S,4R)-6-fluoro-3-hydroxy-chroman-4-yl]chromane-6-carboxamide], for which the EC50 stood at 2.6 nM.

Take `CCC1(CC)CC(=O)N([C@@H]2CCOc3ccc(C(=O)N[C@H]4c5cc(F)ccc5OC[C@@H]4O)cc32)C(=N)N1` [Example 192, (4R)-4-(4,4-diethyl-2-imino-6-oxo-hexahydropyrimidin-1-yl)-N-[(3R,4S)-6-fluoro-3-hydroxy-chroman-4-yl]chromane-6-carboxamide]: it took 232 nM to reach a half-maximal effect (EC50).

Compound `CCC1(CC)CC(=O)N([C@@H]2CCOc3ccc(C(=O)NC(c4ccccc4)c4ccccc4)cc32)C(=N)N1` [Example 194, (4R)-N-benzhydryl-4-(4,4-diethyl-2-imino-6-oxo-hexahydropyrimidin-1-yl)chromane-6-carboxamide] returned a concentration giving a half-maximal response (EC50) of 0.9 nM.

Regarding `CC1(C)CC(=O)N([C@@H]2CCOc3ccc(C(=O)N[C@@H]4c5cc(Cl)ccc5OC[C@@]4(C)O)cc32)C(=N)N1` [Example 195, (4R)-N-[(3S,4R)-6-chloro-3-hydroxy-3-methyl-chroman-4-yl]-4-(2-imino-4,4-dimethyl-6-oxo-hexahydropyrimidin-1-y)chromane-6-carboxamide], it took 3.5 nM to reach a half-maximal effect (EC50).

In the case of `CC[C@]1(C)CC(=O)N([C@@H]2CCOc3ccc(C(=O)N[C@@H]4c5cc(Cl)ccc5OC[C@H]4O)cc32)C(=N)N1` [Example 196, (4R)-N-[(3S,4R)-6-chloro-3-hydroxy-chroman-4-yl]-4-[(4R)-4-ethyl-2-imino-4-methyl-6-oxo-hexahydropyrimidin-1-yl]chromane-6-carboxamide], the half-maximal effective concentration (EC50) is 8.6 nM.

The compound `CCC1(CC)CC(=O)N([C@@H]2CCOc3ccc(C(=O)N[C@H]4c5ccccc5C(F)(F)[C@@H]4O)cc32)C(=N)N1` [Example 197, (4R)-4-(4,4-diethyl-2-imino-6-oxo-hexahydropyrimidin-1-yl)-N-[(1S,2R)-3,3-difluoro-2-hydroxy-indan-1-yl]chromane-6-carboxamide] displayed a half-maximal effective concentration (EC50) of 125 nM.

Compound `CCC1(CC)CC(=O)N([C@@H]2CCOc3ccc(C(=O)N[C@@H]4c5ccccc5C(F)(F)[C@H]4O)cc32)C(=N)N1` [Example 198, (4R)-4-(4,4-diethyl-2-imino-6-oxo-hexahydropyrimidin-1-yl)-N-[(1R,2S)-3,3-difluoro-2-hydroxy-indan-1-yl]chromane-6-carboxamide] gave an EC50 of 11.3 nM.

With `CC1(C)CC(=O)N([C@@H]2CC(F)(F)c3ccc(C(=O)N[C@@H]4c5ccccc5OC(C)(C)[C@H]4O)cc32)C(=N)N1` [Example 199, (3R)-1,1-difluoro-N-[(3S,4R)-3-hydroxy-2,2-dimethyl-chroman-4-yl]-3-(2-imino-4,4-dimethyl-6-oxo-hexahydropyrimidin-1-yl)indane-5-carboxamide], the concentration giving a half-maximal response (EC50) amounted to 1.1 nM.

`CCC1(CC)CC(=O)N([C@@H]2CCOc3ccc(C(=O)NC(c4ccccc4)C4CCCCC4)cc32)C(=N)N1` (stereo partly drawn) [Example 200, (4R)-N-[cyclohexyl(phenyl)methyl]-4-(4,4-diethyl-2-imino-6-oxo-hexahydropyrimidin-1-yl)chromane-6-carboxamide] had a 50% effective concentration (EC50) of 2.9 nM.

`CCC1(CC)CC(=O)N([C@@H]2CCCc3ccc(C(=O)N[C@@H]4c5ccccc5OC(C)(C)[C@H]4O)cc32)C(=N)N1` [Example 201, (4R)-4-(4,4-diethyl-2-imino-6-oxo-hexahydropyrimidin-1-yl)-N-[(3S,4R)-3-hydroxy-2,2-dimethyl-chroman-4-yl]tetralin-6-carboxamide] registered an EC50 of 1.4 nM.
